Measurements as given in ChEMBL document CHEMBL1649237, “IND-6, a highly divergent IND-type metallo-beta-lactamase from Chryseobacterium indologenes strain 597 isolated in Burkina Faso” (2009).
Converted amounts (≈) assume the structure as drawn.

How the values were obtained:
Type in all cases: functional
[1] = system: Chryseobacterium indologenes; assay: Antimicrobial activity against Chryseobacterium indologenes 597 expressing metallo-beta-lactamase IND-6 after 18 hrs by broth microdilution method in presence of beta-lactamase inhibitor clavulanic acid; details: Chryseobacterium indologenes, 597, 18 h
Escherichia coli [2] = assay: Antimicrobial activity against Escherichia coli DH5alpha harboring metallo-beta-lactamase IND-6 after 18 hrs by broth microdilution method; details: DH5[alpha]
[3] = system: Chryseobacterium indologenes; assay: Antimicrobial activity against Chryseobacterium indologenes 597 expressing metallo-beta-lactamase IND-6 after 18 hrs by broth microdilution method; details: Chryseobacterium indologenes, 597, 18 h
Escherichia coli [4] = assay: Antimicrobial activity against Escherichia coli DH5alpha harboring plasmid pBC-SK after 18 hrs by broth microdilution method; details: DH5[alpha]
[5] = system: Chryseobacterium indologenes; assay: Antimicrobial activity against Chryseobacterium indologenes 597 expressing metallo-beta-lactamase IND-6 after 18 hrs by broth microdilution method in presence of beta-lactamase inhibitor Tazobactam; details: Chryseobacterium indologenes, 597, 18 h

| SMILES | MIC [1] [mg/L] | MIC (Escherichia coli [2]) [mg/L] | MIC [3] [mg/L] | MIC (Escherichia coli [4]) [mg/L] | MIC [5] [mg/L] |
| --- | --- | --- | --- | --- | --- |
| CC1(C)S[C@@H]2[C@H](NC(=O)[C@H](N)c3ccc(O)cc3)C(=O)N2[C@H]1C(=O)O [AMOXICILLIN] | ≥ 64 |  |  |  |  |
| CC1(C)S[C@@H]2[C@H](NC(=O)[C@H](N)c3ccccc3)C(=O)N2[C@H]1C(=O)O [AMPICILLIN] |  | 32 (≈ 91.6 µM) | ≥ 64 |  |  |
| C[C@H]1[C@H](NC(=O)/C(=N\OC(C)(C)C(=O)O)c2csc(N)n2)C(=O)N1S(=O)(=O)O [AZTREONAM] |  | 0.25 (≈ 0.574 µM) |  | 0.25 (≈ 0.574 µM) |  |
| CO/N=C(\C(=O)N[C@@H]1C(=O)N2C(C(=O)[O-])=C(C[N+]3(C)CCCC3)CS[C@H]12)c1csc(N)n1 [CEFEPIME] |  | 0.12 (≈ 0.25 µM) | 1 (≈ 2.08 µM) | 0.03 (≈ 0.0624 µM) |  |
| CO/N=C(\C(=O)N[C@@H]1C(=O)N2C(C(=O)O)=C(COC(C)=O)CS[C@H]12)c1csc(N)n1 [CEFOTAXIME] |  | 0.5 (≈ 1.1 µM) | 32 (≈ 70.3 µM) | 0.12 (≈ 0.263 µM) |  |
| CO[C@@]1(NC(=O)Cc2cccs2)C(=O)N2C(C(=O)O)=C(COC(N)=O)CS[C@@H]21 [CEFOXITIN] |  | 16 (≈ 37.4 µM) | 16 (≈ 37.4 µM) | 2 (≈ 4.68 µM) |  |
| CC(C)(O/N=C(\C(=O)N[C@@H]1C(=O)N2C(C(=O)[O-])=C(C[n+]3ccccc3)CS[C@H]12)c1csc(N)n1)C(=O)O [CEFTAZIDIME] |  | 1 (≈ 1.83 µM) | 8 (≈ 14.6 µM) | 0.12 (≈ 0.22 µM) |  |
| CO/N=C(\C(=O)N[C@@H]1C(=O)N2C(C(=O)O)=C(CSc3nc(=O)c(O)nn3C)CS[C@H]12)c1csc(N)n1 [CEFTRIAXONE] |  | 0.12 (≈ 0.216 µM) |  | 0.03 (≈ 0.0541 µM) |  |
| CO/N=C(\C(=O)N[C@@H]1C(=O)N2C(C(=O)O)=C(COC(N)=O)CS[C@H]12)c1ccco1 [CEFUROXIME] |  | 32 (≈ 75.4 µM) | ≥ 64 | 2 (≈ 4.71 µM) |  |
| CC(=O)OCC1=C(C(=O)O)N2C(=O)[C@@H](NC(=O)Cc3cccs3)[C@H]2SC1 [CEPHALOTHIN] |  | 64 (≈ 161 µM) | ≥ 64 | 4 (≈ 10.1 µM) |  |
| C[C@@H](O)[C@H]1C(=O)N2C(C(=O)O)=C(SCCNC=N)C[C@H]12 [IMIPENEM ANHYDROUS] |  | 1 (≈ 3.34 µM) | ≥ 64 |  |  |
| C[C@@H](O)[C@H]1C(=O)N2C(C(=O)O)=C(S[C@@H]3CN[C@H](C(=O)N(C)C)C3)[C@H](C)[C@H]12 [MEROPENEM] |  | 0.12 (≈ 0.313 µM) | 8 (≈ 20.9 µM) | 0.03 (≈ 0.0782 µM) |  |
| CCN1CCN(C(=O)N[C@@H](C(=O)N[C@@H]2C(=O)N3[C@@H]2SC(C)(C)[C@@H]3C(=O)O)c2ccccc2)C(=O)C1=O [PIPERACILLIN] |  |  | 4 (≈ 7.73 µM) |  | 4 |
| CO[C@@]1(NC(=O)C(C(=O)O)c2ccsc2)C(=O)N2[C@@H](C(=O)O)C(C)(C)S[C@@H]21 (stereo partly specified) [TEMOCILLIN] |  | 16 (≈ 38.6 µM) |  | 4 (≈ 9.65 µM) |  |
| CC1(C)S[C@@H]2[C@H](NC(=O)[C@H](C(=O)O)c3ccsc3)C(=O)N2[C@H]1C(=O)O [TICARCILLIN] |  | 256 (≈ 666 µM) |  | 4 (≈ 10.4 µM) |  |
